Assay results published in ChEMBL document CHEMBL1155519, “Discovery of N-phenyl-4-(thiazol-5-yl)pyrimidin-2-amine aurora kinase inhibitors” (J Med Chem, 2010).
Each block holds one compound with its values, some of them ahead of it. The source made the active and inactive calls. No cut-off for these calls is given here.

Assays:
Aurora kinase A = molecular target: T1, Aurora kinase A (Homo sapiens, UniProt O14965); assay: Inhibition of human recombinant Aurora A after 30 mins
T1 sequence (O14965 whole entry): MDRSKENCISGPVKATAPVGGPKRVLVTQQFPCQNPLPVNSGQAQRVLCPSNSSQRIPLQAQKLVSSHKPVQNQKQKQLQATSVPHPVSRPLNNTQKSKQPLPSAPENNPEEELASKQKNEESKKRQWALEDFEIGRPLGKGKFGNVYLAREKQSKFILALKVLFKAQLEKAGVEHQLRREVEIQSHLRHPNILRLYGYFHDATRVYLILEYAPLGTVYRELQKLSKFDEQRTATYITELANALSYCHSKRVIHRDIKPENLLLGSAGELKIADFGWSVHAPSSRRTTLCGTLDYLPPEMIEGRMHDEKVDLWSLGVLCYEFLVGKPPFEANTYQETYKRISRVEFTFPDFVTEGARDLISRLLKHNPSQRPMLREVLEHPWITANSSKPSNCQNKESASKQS

Aurora kinase B = Aurora kinase B (Homo sapiens, UniProt Q96GD4); assay: Inhibition of human recombinant Aurora B after 60 mins
[1] = molecular target: Cyclin-dependent kinase 1 (Homo sapiens, UniProt P06493); assay: Inhibition of CDK1
[2] = molecular target: Cyclin-dependent kinase 4 (Homo sapiens, UniProt P11802); assay: Inhibition of CDK4
[3] = molecular target: Cyclin-dependent kinase 7 (Homo sapiens, UniProt P50613); assay: Inhibition of CDK7
[4] = molecular target: Cyclin-dependent kinase 9 (Homo sapiens, UniProt P50750); assay: Inhibition of CDK9
A2780 = assay: Cytotoxicity against human A2780 cells after 96 hrs by MTT assay; type: functional, cell-based; conditions: A2780, 96 h
MIA PaCa-2 = assay: Cytotoxicity against human MIAPaCa2 cells after 96 hrs by MTT assay; type: functional, cell-based; conditions: MIA PaCa-2, 96 h
[5] = Inhibition of Aurora kinase in human A549 cells assessed as concentration required for half-maximal inhibition of histone H3 serine-10 phosphorylation after 7 hrs immunofluorescence microscopy; type: cell-based; conditions: A549, 7 h
[6] = molecular target: Cyclin-dependent kinase 2 (Homo sapiens, UniProt P24941)
MCF7 [7] = assay: Induction of p53 protein expression in human MCF7 cells at 150 nM after 7 hrs by fluorescent microscopy; type: functional, cell-based
U2OS [8] = assay: Inhibition of Aurora kinase in asynchronous human U2OS cells assessed as reduction of histone H3 serine-10 phosphorylation at 150 nM after 7 hrs immunofluorescence microscopy; type: cell-based
U2OS [9] = assay: Inhibition of Aurora kinase in nocodazole-synchronized human U2OS cells assessed as reduction of histone H3 serine-10 phosphorylation at 0.07 to 10 uM after 2 hrs immunofluorescence microscopy; type: cell-based
MCF7 [10] = assay: Induction of p53 protein expression in human MCF7 cells at 0.07 to 10 uM after 7 hrs by fluorescent microscopy; type: functional, cell-based

Sequence of Cyclin-dependent kinase 1 (P06493 whole entry): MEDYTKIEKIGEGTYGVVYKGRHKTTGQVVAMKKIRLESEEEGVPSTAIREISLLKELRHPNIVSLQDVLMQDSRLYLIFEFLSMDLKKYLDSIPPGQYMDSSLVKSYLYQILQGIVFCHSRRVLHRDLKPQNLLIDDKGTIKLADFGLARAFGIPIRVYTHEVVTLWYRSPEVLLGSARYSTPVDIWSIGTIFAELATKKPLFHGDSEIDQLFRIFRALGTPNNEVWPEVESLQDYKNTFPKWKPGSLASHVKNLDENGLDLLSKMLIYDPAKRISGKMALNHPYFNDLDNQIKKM
Sequence of Cyclin-dependent kinase 4 (P11802 whole entry): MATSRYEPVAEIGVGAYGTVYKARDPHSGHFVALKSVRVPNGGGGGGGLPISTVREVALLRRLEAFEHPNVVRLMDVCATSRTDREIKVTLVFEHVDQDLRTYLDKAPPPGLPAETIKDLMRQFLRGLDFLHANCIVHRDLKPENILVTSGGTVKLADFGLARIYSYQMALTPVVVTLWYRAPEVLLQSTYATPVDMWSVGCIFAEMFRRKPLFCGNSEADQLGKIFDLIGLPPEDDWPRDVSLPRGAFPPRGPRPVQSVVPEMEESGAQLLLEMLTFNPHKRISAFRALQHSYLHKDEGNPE
Sequence of Aurora kinase B (Q96GD4 whole entry): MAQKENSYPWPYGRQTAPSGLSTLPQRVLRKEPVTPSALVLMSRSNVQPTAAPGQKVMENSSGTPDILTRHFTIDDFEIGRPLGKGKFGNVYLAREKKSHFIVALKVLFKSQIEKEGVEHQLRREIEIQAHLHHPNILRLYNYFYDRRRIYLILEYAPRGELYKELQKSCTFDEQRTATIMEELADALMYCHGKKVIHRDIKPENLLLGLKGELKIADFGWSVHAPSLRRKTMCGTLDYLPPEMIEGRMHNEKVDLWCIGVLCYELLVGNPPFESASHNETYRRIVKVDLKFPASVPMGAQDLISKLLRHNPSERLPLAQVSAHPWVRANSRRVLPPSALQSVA
Sequence of Cyclin-dependent kinase 9 (P50750 whole entry): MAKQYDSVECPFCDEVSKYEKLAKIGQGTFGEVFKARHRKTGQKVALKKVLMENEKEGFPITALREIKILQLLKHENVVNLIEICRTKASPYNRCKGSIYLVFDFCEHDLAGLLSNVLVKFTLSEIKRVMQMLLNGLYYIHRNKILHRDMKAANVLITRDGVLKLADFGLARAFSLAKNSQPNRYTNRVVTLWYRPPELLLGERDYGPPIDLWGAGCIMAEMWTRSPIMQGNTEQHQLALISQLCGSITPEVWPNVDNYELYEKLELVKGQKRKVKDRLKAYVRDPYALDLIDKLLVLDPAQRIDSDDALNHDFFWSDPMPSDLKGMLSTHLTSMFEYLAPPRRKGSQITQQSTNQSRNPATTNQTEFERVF
Sequence of Cyclin-dependent kinase 7 (P50613 whole entry): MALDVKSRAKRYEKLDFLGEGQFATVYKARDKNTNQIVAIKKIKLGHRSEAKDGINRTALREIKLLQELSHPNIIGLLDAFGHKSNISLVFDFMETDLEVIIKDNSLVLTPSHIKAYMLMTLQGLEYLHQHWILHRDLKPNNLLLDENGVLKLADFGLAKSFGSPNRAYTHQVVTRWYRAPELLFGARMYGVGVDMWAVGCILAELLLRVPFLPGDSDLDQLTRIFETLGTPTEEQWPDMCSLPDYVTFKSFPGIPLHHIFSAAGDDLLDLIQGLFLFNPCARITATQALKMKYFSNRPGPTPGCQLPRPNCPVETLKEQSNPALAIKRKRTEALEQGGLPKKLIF

SMILES: Cc1nc(C)c(-c2ccnc(Nc3ccc(N4CCN(S(C)(=O)=O)CC4)cc3)n2)s1
Ki (Aurora kinase A): 9.2 nM
Ki (Aurora kinase B): 18 nM
Ki [1]: > 10000 nM
Ki [2]: > 10000 nM
Ki [3]: > 10000 nM
Ki [4]: 1470 nM
IC50 (A2780): 298 nM
IC50 (MIA PaCa-2): 608 nM
IC50 [5]: 1110 nM
Ki [6]: 3970 nM

SMILES: Cc1nc(N)sc1-c1ccnc(Nc2cccc([N+](=O)[O-])c2)n1
IC50 (A2780): 48 nM
IC50 (MIA PaCa-2): 139 nM
Activity (MCF7 [7]): Active
Activity (U2OS [8]): Active
inhibition (U2OS [9]): Active

SMILES: COc1cc(Nc2nccc(-c3sc(C)nc3C)n2)cc(OC)c1OC
Ki (Aurora kinase A): 0.4 nM
Ki (Aurora kinase B): 2 nM
Ki [1]: 706 nM
Ki [2]: 666 nM
Ki [3]: 243 nM
Ki [4]: 11 nM
IC50 (A2780): 10 nM
IC50 (MIA PaCa-2): 22 nM
Activity (MCF7 [10]): inactive
Activity (U2OS [8]): inactive
inhibition (U2OS [9]): Active
IC50 [5]: 130 nM
Ki [6]: 239 nM

SMILES: CCNc1nc(C)c(-c2ccnc(Nc3ccc(CNC(C)=O)cc3)n2)s1
Ki (Aurora kinase A): 5 nM
Ki (Aurora kinase B): 4 nM
Ki [1]: 240 nM
Ki [2]: 38 nM
Ki [3]: 171 nM
Ki [4]: 9 nM
IC50 (A2780): 81 nM
IC50 (MIA PaCa-2): 230 nM
IC50 [5]: 760 nM
Ki [6]: 32 nM

Further lines, with some results ahead:

Ki (Aurora kinase A): 12 nM
Ki (Aurora kinase B): 9.7 nM
Ki [1]: 851 nM
Ki [2]: 22 nM
Ki [3]: 1080 nM
Ki [4]: 448 nM
Ki [6]: 297 nM
SMILES: CNc1nc(C)c(-c2ccnc(Nc3ccc(N4CCN(C(C)=O)CC4)cc3)n2)s1
IC50 (A2780): 221 nM
IC50 (MIA PaCa-2): 622 nM

Ki (Aurora kinase A): 19 nM
Ki (Aurora kinase B): 9.4 nM
Ki [1]: 3930 nM
Ki [2]: 943 nM
Ki [3]: > 10000 nM
Ki [4]: 2610 nM
IC50 [5]: 3700 nM
Ki [6]: 156 nM
SMILES: CNc1nc(C)c(-c2ccnc(Nc3ccc(N4CCOCC4)cc3)n2)s1
IC50 (A2780): 144 nM
IC50 (MIA PaCa-2): 273 nM
Activity (MCF7 [10]): inactive
Activity (U2OS [8]): inactive
inhibition (U2OS [9]): Active

Ki (Aurora kinase A): 7.6 nM
Ki (Aurora kinase B): 3.8 nM
Ki [1]: > 10000 nM
Ki [2]: 1250 nM
Ki [3]: 2150 nM
Ki [4]: 264 nM
IC50 [5]: 590 nM
Ki [6]: 522 nM
SMILES: CC(=O)N1CCN(c2ccc(Nc3nccc(-c4sc(N)nc4C)n3)cc2)CC1
IC50 (A2780): 240 nM
IC50 (MIA PaCa-2): 493 nM
